Measured values as given in patent US20160136193A1, “TREATMENT OF SYMPTOMS ASSOCIATED WITH BACTERIAL VAGINOSIS” (IDH Holding ApS, priority 2003, published 2016).

Columns and labels:
[1] = system: symptoms associated with bacterial vaginosis; experiment: Treatment of a person with recurrent vaginal fishy-smelling secretions (Example 9); assay type: in vivo, human; conditions: after two 7-day treatments
Procedure: A person had suffered from discomfort and vaginal secretions of fishy smell recurring after two 7-day treatments with metronidazole. The vaginal pH was approximately 5.3, varying between 5.0 and 5.5.
A lactose suspension (1-3 ml) as prepared in Example 8 was instilled into the vagina twice daily. After approximately 24 hours the pH lowered to 4.7 and the fishy odor disappeared. Continuous application once a day further lowered the pH down to approximately 4.4. The treatment was continued for 4 days.
After 4 days symptoms such as the fishy odor recurred; however, the symptoms disappeared after one day of the treatment described above.

Bacterial Vaginosis = conditions: cited from earlier work

In the case of `Cc1ncc([N+](=O)[O-])n1CCO` [Metronidazole], the “discomfort and vaginal secretions of fishy smell after treatment” value [1] is given as “recurring”, the cure rate (Bacterial Vaginosis; 7-day treatment, after 1 month) is given as 80-90% and the side effects (Bacterial Vaginosis; 7-day treatment) is given as “nausea, abdominal cramps and a metallic taste”.

For Lactobacillus acidophilus, the benefits in studies (Bacterial Vaginosis; alternative measures) is given as “have not demonstrated benefits”.

In the case of `CCC[C@@H]1C[C@@H](C(=O)N[C@@H]([C@H]2O[C@H](SC)[C@H](O)[C@@H](O)[C@H]2O)[C@H](C)Cl)N(C)C1` [Clindamycin], the side effects (Bacterial Vaginosis; 7-day treatment) is listed as “less, though diarrhea is possible”.
